Measurements published in patent US10716850B2, “Anti-inflammatory factor retentate, method of isolation, and use” (Wellin, Inc., priority 2014, dated 2020).

Experiments:
[1] = system: neutrophil migration into the pleural cavity; assay: pleural neutrophil migration inhibition assay; assay type: in vivo, rat; details: for dose range of activity in the neutrophil assay: compared together with Peak 12
Protocol: Neutrophil Migration Inhibition Assay. MAIF anti-inflammatory activity was determined in a pleural neutrophil migration inhibition assay. Female, white laboratory rats weighing 120 to 150 g were injected intrapleurally with 1.0 ml of 1% kappa carrageenin in PBS to induce neutrophil migration into the pleural cavity. Immediately, the rats were injected intraperitoneally with 0.5 ml doses of […] samples in PBS. PBS was used as a control. After four hours, the rats were sacrificed, pleural exudates were collected, and the emigrated neutrophils were counted.

[2] = system: circulating neutrophils and lymphocytes; assay: effect on circulating leucocytes; assay type: in vivo, rat; details: other anti-inflammatory/immunomodulatory agents
Protocol: Two experiments were done. In the first, the MAIF preparation was administered intravenously at a dose of 40 mg/rat to one group of 6 animals and a control group was injected with saline. Blood samples were obtained at baseline, 1, 4, and 24 hours after treatment.
A further dose-response study was carried out in which a group of rats were injected intravenously with saline, 5, 10 or 20 mg of the MAIF preparation. Blood from each rat had been taken 7 days previously to provide baseline values and was taken again 4 hours after the injection of MAIF. Included on the graph are the results obtained from the sample taken 4 hours after the administration of 40 mg the MAIF preparation (see FIG. 31).

[3] = system: carrageenan-induced footpad edema; assay: quantitative rat carrageenan footpad assay with 125I-HSA; assay type: in vivo; details: given 30 minutes prior to carrageenan; aspirin orally 200 mg per kilogram, MAIF intraperitoneally, all dosages
Protocol: Peak I from the G-10 column, supplied by Stolle Milk Biologics International, was prepared according to the methods described in U.S. Pat. No. 4,956,349. Lactose, obtained from commercial sources, was used as placebo. Aspirin was used as a positive control. Aspirin was dissolved in water and given orally by gastric gavage at the ratio of 200 mg per kilogram, a dose known to be active in the assay. […] The footpad assay was modified by using isotopically labeled human serum albumin (^125I-HSA) that localizes in the carrageenan-induced lesion in direct proportion to the volume of the exudate. By determining the total radioactive count in the footpad and comparing this to the counts in a known volume of plasma from the injected animal, a direct measurement of edema in microliters of plasma equivalents is obtained. ^125I-HSA was injected intravenously at a dose of 1.0 microcurie per rat. Female Dark Agouti rats were used. […]
To conduct the carrageenan footpad assay, 0.1 ml of 2% carrageenan was injected subcutaneously into each hind foot pad of an anesthetized rat. […] Both hind feet were then removed and the levels of radioactivity in each foot and in the 200 μl plasma standard were measured in an automated gamma counter. From these measurements the volume of edema in each foot was calculated and expressed in microliters.

Compound | dose range of activity in the neutrophil assay [1] | effect on circulating leucocytes in the rat [2] | also measured
O=C(O)c1cc(=O)[nH]c(=O)[nH]1 [orotic acid] | – | – | inhibitory activity on the migration of rat neutrophils ([1]; in the doses tested): Neither the sialic acid nor the orotic acid exhibited any inhibitory activity
COc1ccc2c(c1)c(CC(=O)O)c(C)n2C(=O)c1ccc(Cl)cc1 [indomethacin] | active in the high microgram to milligram range | – | –
O=P1(N(CCCl)CCCl)NCCCO1 (stereo not drawn) [cyclophosphamide] | – | depletes both circulating lymphocytes and neutrophils | –
CC(=O)Oc1ccccc1C(=O)O [aspirin] | active in the high microgram to milligram range | – | footpad edema [3]: inhibited
cyclosporin A | – | causes an increase in the number of circulating neutrophils but lymphocyte numbers are either increased or not affected depending on the dose | –
